Consider 24 substances from US20040171566A1, “Antisense modulation of p38 mitogen activated protein kinase expression” (priority 1999, published 2004).

e = 2'-O-(2-methoxyethyl) (MOE); d = 2'-deoxy (DNA)

The subject of one series is mouse p38α mRNA. Description: Mouse p38α mRNA levels in bEND.3 cells, quantitative real-time PCR. It is filed as cell-based. Further details: % Inhib. mouse p38α: concentration or dose not given beside the values. As to conditions: bEND.3 cells, mRNA by quantitative real-time PCR, average of two experiments. An excerpt:
(§1) Quantitation of p38α mRNA levels was accomplished by real-time quantitative PCR using the ABI PRISM™ 7600, 7700, or 7900 Sequence Detection System (PE-Applied Biosystems, Foster City, Calif.) according to manufacturer's instructions. This is a closed-tube, non-gel-based, fluorescence detection system which allows high-throughput quantitation of polymerase chain reaction (PCR) products in real-time. As opposed to standard PCR in which amplification products are quantitated after the PCR is completed, products in real-time quantitative PCR are quantitated as they accumulate. This is accomplished by including in the PCR reaction an oligonucleotide probe that anneals specifically between the forward and reverse PCR primers, and contains two fluorescent dyes. A reporter dye (e.g., FAM or JOE, obtained from either PE-Applied Biosystems, Foster City, Calif., Operon Technologies Inc., Alameda, Calif. or Integrated DNA Technologies Inc., Coralville, Iowa) is attached to the 5′ end of the probe and a quencher dye (e.g., TAMRA, obtained from either PE-Applied Biosystems, Foster City, Calif., Operon Technologies Inc., Alameda, Calif. or Integrated DNA Technologies Inc., Coralville, Iowa) is attached to the 3′ end of the probe. When the probe and dyes are intact, reporter dye emission is quenched by the proximity of the 3′ quencher dye. During amplification, annealing of the probe to the target sequence creates a substrate that can be cleaved by the 5′-exonuclease activity of Taq polymerase. […] With each cycle, additional reporter dye molecules are cleaved from their respective probes, and the fluorescence intensity is monitored at regular intervals by laser optics built into the ABI PRISM™ Sequence Detection System. In each assay, a series of parallel reactions containing serial dilutions of mRNA from untreated control samples generates a standard curve that is used to quantitate the percent inhibition after antisense oligonucleotide treatment of test samples.
(§2) Prior to quantitative PCR analysis, primer-probe sets specific to the target gene being measured are evaluated for their ability to be “multiplexed” with a GAPDH amplification reaction. In multiplexing, both the target gene and the internal standard gene GAPDH are amplified concurrently in a single sample. In this analysis, mRNA isolated from untreated cells is serially diluted. Each dilution is amplified in the presence of primer-probe sets specific for GAPDH only, target gene only (“single-plexing”), or both (multiplexing). Following PCR amplification, standard curves of GAPDH and target mRNA signal as a function of dilution are generated from both the single-plexed and multiplexed samples. If both the slope and correlation coefficient of the GAPDH and target signals generated from the multiplexed samples fall within 10% of their corresponding values generated from the single-plexed samples, the primer-probe set specific for that target is deemed multiplexable. Other methods of PCR are also known in the art.
(§3) PCR reagents were obtained from Invitrogen Corporation, (Carlsbad, Calif.). […] The RT reaction was carried out by incubation for 30 minutes at 48° C. Following a 10 minute incubation at 95° C. to activate the PLATINUM® Taq, 40 cycles of a two-step PCR protocol were carried out: 95° C. for 15 seconds (denaturation) followed by 60° C. for 1.5 minutes (annealing/extension).
(§4) Gene target quantities obtained by real time RT-PCR are normalized using either the expression level of GAPDH, a gene whose expression is constant, or by quantifying total RNA using RiboGreen™ (Molecular Probes, Inc. Eugene, Oreg.). GAPDH expression is quantified by real time RT-PCR, by being run simultaneously with the target, multiplexing, or separately. Total RNA is quantified using RiboGreen™ RNA quantification reagent (Molecular Probes, Inc. Eugene, Oreg.). Methods of RNA quantification by RiboGreen™ are taught in Jones, L. J., et al, (Analytical Biochemistry, 1998, 265, 368-374). […]
In general terms: Real-time PCR tracks product formation cycle by cycle.

For the next series, the system named is rat p38α mRNA. Description: Rat p38α mRNA levels in NR-8383 cells, quantitative real-time PCR. It is filed as cell-based. As to conditions: 300 nM oligonucleotide with FuGENE 6, 24 hours, mRNA by quantitative real-time PCR, average of two experiments.
Source text: as §1, §2, §3, §4

On to “320114 (antisense CTTAAAATGAGCTTCAACTG; sugars from the 5' end e5 d10 e5, all phosphorothioate, methylation of C not given here) [compound 320114]”, for which, in the series with mouse p38α mRNA, the “% Inhib. mouse p38α” value was determined as 71%. Besides, the “% Inhib. rat p38α” value in the series on rat p38α mRNA came to 60%.

Turning to “320115 (antisense GGGTTCCAACGAGTCTTAAA; sugars from the 5' end e5 d10 e5, all phosphorothioate, methylation of C not given here) [compound 320115]”, the “% Inhib. mouse p38α” value with mouse p38α mRNA worked out at 67%. Moreover, in the series with rat p38α mRNA, the “% Inhib. rat p38α” value came to 53%.

Regarding “320116 (antisense TCAGAAGCTCAGCCCCTGGG; sugars from the 5' end e5 d10 e5, all phosphorothioate, methylation of C not given here) [compound 320116]”, the “% Inhib. mouse p38α” value with mouse p38α mRNA turned out to be 95%. Besides, the “% Inhib. rat p38α” value in the series with rat p38α mRNA amounted to 73%.

Take “320117 (antisense GGAGATTTTCTTCAGAAGCT; sugars from the 5' end e5 d10 e5, all phosphorothioate, methylation of C not given here) [compound 320117]”: in the series on mouse p38α mRNA, the “% Inhib. mouse p38α” value came out at 72%. Moreover, the “% Inhib. rat p38α” value in the series on rat p38α mRNA is 55%.

In the case of “320118 (antisense CAGACTCTGAGGAGATTTTC; sugars from the 5' end e5 d10 e5, all phosphorothioate, methylation of C not given here) [compound 320118]”, the “% Inhib. mouse p38α” value in the series with mouse p38α mRNA was found to be 47%. Besides, the “% Inhib. rat p38α” value with rat p38α mRNA is listed as 69%.

Take “320122 (antisense ATTTGCGAAGTTCATCTTCG; sugars from the 5' end e5 d10 e5, all phosphorothioate, methylation of C not given here) [compound 320122]”: in the series on mouse p38α mRNA, the “% Inhib. mouse p38α” value was 73%. Also, the “% Inhib. rat p38α” value in the series with rat p38α mRNA was found to be 48%.

For the substance “320123 (antisense CAATAAATACATTTGCGAAG; sugars from the 5' end e5 d10 e5, all phosphorothioate, methylation of C not given here) [compound 320123]”, in the series on mouse p38α mRNA, the “% Inhib. mouse p38α” value is listed as 79%. Moreover, the “% Inhib. rat p38α” value in the series with rat p38α mRNA amounted to 32%.

“320124 (antisense GGATTGGCACCAATAAATAC; sugars from the 5' end e5 d10 e5, all phosphorothioate, methylation of C not given here) [compound 320124]”: the “% Inhib. mouse p38α” value in the series on mouse p38α mRNA was found to be 29%. The “% Inhib. rat p38α” value in the series on rat p38α mRNA was 31%.

Take “320125 (antisense GCTGCTGTGATCCTCTTATC; sugars from the 5' end e5 d10 e5, all phosphorothioate, methylation of C not given here) [compound 320125]”: the “% Inhib. mouse p38α” value in the series with mouse p38α mRNA was 67%. Also, in the series with rat p38α mRNA, the “% Inhib. rat p38α” value turned out to be 63%.

With “320126 (antisense AGGCATGCGCAAGAGCTTGG; sugars from the 5' end e5 d10 e5, all phosphorothioate, methylation of C not given here) [compound 320126]”, the “% Inhib. mouse p38α” value in the series with mouse p38α mRNA is on record as 90%. Also, in the series on rat p38α mRNA, the “% Inhib. rat p38α” value was found to be 69%.

Turning to “320127 (antisense TGAGCAAAGTAGGCATGCGC; sugars from the 5' end e5 d10 e5, all phosphorothioate, methylation of C not given here) [compound 320127]”, the “% Inhib. mouse p38α” value in the series on mouse p38α mRNA turned out to be 73%. For the same substance, the “% Inhib. rat p38α” value in the series on rat p38α mRNA is reported as 56%.

For the substance “320128 (antisense TCAAAGGACTGGTCATAAGG; sugars from the 5' end e5 d10 e5, all phosphorothioate, methylation of C not given here) [compound 320128]”, the “% Inhib. mouse p38α” value in the series on mouse p38α mRNA was found to be 79%. In addition, the “% Inhib. rat p38α” value in the series with rat p38α mRNA is 37%.

As for “320129 (antisense CATTTCTTCTTGGTCAAGGG; sugars from the 5' end e5 d10 e5, all phosphorothioate, methylation of C not given here) [compound 320129]”, in the series on mouse p38α mRNA, the “% Inhib. mouse p38α” value is 69%. The “% Inhib. rat p38α” value in the series with rat p38α mRNA is 65%.

Take “320130 (antisense AGGACTCCATTTCTTCTTGG; sugars from the 5' end e5 d10 e5, all phosphorothioate, methylation of C not given here) [compound 320130]”: the “% Inhib. mouse p38α” value in the series on mouse p38α mRNA worked out at 81%. In the series with rat p38α mRNA, the “% Inhib. rat p38α” value is given as 61%.

As to “320131 (antisense CTTCCCCTCACAGTGAAGTG; sugars from the 5' end e5 d10 e5, all phosphorothioate, methylation of C not given here) [compound 320131]”, the “% Inhib. mouse p38α” value with mouse p38α mRNA amounted to 92%. For the same substance, the “% Inhib. rat p38α” value in the series on rat p38α mRNA was 39%.

Take “320132 (antisense TATTTGGAGAGTTCCCATGA; sugars from the 5' end e5 d10 e5, all phosphorothioate, methylation of C not given here) [compound 320132]”: the “% Inhib. mouse p38α” value in the series with mouse p38α mRNA was found to be 85%. The “% Inhib. rat p38α” value with rat p38α mRNA turned out to be 56%.

For “320133 (antisense ACTTGAATGGTATTTGGAGA; sugars from the 5' end e5 d10 e5, all phosphorothioate, methylation of C not given here) [compound 320133]”, the “% Inhib. mouse p38α” value in the series with mouse p38α mRNA is recorded as 52%. In the series with rat p38α mRNA, the “% Inhib. rat p38α” value was 61%.

As to “320134 (antisense AACAAGAGGCACTTGAATGG; sugars from the 5' end e5 d10 e5, all phosphorothioate, methylation of C not given here) [compound 320134]”, in the series with mouse p38α mRNA, the “% Inhib. mouse p38α” value amounted to 85%. Further, in the series with rat p38α mRNA, the “% Inhib. rat p38α” value worked out at 74%.

For “320135 (antisense ACCCCCTTCCACCATGAAGG; sugars from the 5' end e5 d10 e5, all phosphorothioate, methylation of C not given here) [compound 320135]”, the “% Inhib. mouse p38α” value in the series on mouse p38α mRNA amounted to 95%. The “% Inhib. rat p38α” value in the series with rat p38α mRNA turned out to be 47%.

Consider “320136 (antisense AGCAGGCAGACTGCCAAGGA; sugars from the 5' end e5 d10 e5, all phosphorothioate, methylation of C not given here) [compound 320136]”, for which the “% Inhib. mouse p38α” value with mouse p38α mRNA is recorded as 83%. In addition, the “% Inhib. rat p38α” value in the series on rat p38α mRNA is listed as 34%.

With “320137 (antisense CACACACATCCCTAAGGAGA; sugars from the 5' end e5 d10 e5, all phosphorothioate, methylation of C not given here) [compound 320137]”, in the series on mouse p38α mRNA, the “% Inhib. mouse p38α” value is given as 80%. Also, in the series with rat p38α mRNA, the “% Inhib. rat p38α” value is listed as 44%.

For “320138 (antisense TAAAGGCAGGGCCACAGGAG; sugars from the 5' end e5 d10 e5, all phosphorothioate, methylation of C not given here) [compound 320138]”, in the series on mouse p38α mRNA, the “% Inhib. mouse p38α” value was determined as 87%. Further, the “% Inhib. rat p38α” value with rat p38α mRNA turned out to be 46%.

Turning to “320139 (antisense GCAGCCTCTCTCTGTCACTG; sugars from the 5' end e5 d10 e5, all phosphorothioate, methylation of C not given here) [compound 320139]”, the “% Inhib. mouse p38α” value in the series on mouse p38α mRNA is given as 87%. Further, in the series on rat p38α mRNA, the “% Inhib. rat p38α” value is recorded as 61%.

Turning to “320140 (antisense GGGATAGCCTCAGACCTGAA; sugars from the 5' end e5 d10 e5, all phosphorothioate, methylation of C not given here) [compound 320140]”, in the series with mouse p38α mRNA, the “% Inhib. mouse p38α” value is 61%. Besides, the “% Inhib. rat p38α” value in the series on rat p38α mRNA is 37%.
